The target in this test is T1, Kinesin-like protein KIF23 (Homo sapiens, UniProt Q02241).
T1 sequence (Q02241 whole entry): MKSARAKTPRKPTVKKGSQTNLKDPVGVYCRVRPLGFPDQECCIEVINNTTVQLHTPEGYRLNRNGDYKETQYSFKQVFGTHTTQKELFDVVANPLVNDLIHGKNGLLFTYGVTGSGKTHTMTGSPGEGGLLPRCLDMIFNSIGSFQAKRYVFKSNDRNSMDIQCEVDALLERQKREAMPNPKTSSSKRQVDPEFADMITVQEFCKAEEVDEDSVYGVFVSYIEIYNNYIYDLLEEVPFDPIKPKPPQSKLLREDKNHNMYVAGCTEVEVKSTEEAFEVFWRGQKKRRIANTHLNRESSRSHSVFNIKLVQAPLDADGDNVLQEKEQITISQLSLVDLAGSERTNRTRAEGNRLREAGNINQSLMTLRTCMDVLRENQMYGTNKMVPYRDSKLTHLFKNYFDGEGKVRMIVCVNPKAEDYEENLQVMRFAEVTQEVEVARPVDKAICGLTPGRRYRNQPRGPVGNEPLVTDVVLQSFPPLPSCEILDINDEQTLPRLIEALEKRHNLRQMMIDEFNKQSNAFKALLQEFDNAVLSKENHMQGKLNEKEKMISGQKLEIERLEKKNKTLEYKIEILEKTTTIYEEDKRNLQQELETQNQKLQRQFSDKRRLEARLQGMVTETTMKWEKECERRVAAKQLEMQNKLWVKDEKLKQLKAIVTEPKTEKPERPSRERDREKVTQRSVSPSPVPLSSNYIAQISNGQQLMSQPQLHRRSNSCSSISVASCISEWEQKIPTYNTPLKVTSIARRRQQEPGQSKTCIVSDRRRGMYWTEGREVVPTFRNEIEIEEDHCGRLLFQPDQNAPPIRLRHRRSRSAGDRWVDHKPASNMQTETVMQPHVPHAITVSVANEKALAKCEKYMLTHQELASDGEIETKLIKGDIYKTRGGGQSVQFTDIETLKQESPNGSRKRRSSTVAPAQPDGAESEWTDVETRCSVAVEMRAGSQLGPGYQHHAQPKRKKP
The test can be described thus: Inhibition of cloned human MKLP1.

Where only a bound is given, the exact number is not on record here.

What is called IC50 is the concentration that inhibits the measured activity by half. A high value points to a need for much substance. `CN1CC[C@H](N(C)C(=O)N2CC(c3cc(F)ccc3F)=C[C@@]2(CO)c2ccccc2)[C@H](F)C1` came in with a half-maximal inhibitory concentration (IC50) of over 50 µM.

For the origin of these results see ChEMBL document CHEMBL1155077, “Kinesin spindle protein (KSP) inhibitors. 9. Discovery of (2S)-4-(2,5-difluorophenyl)-n-[(3R,4S)-3-fluoro-1-methylpiperidin-4-yl]-2-(hydroxymethyl)-N-methyl-2-phenyl-2,5-dihydro-1H-pyrrole-1-carboxamide (MK-0731) for the treatment of taxane-refractory cancer” (J Med Chem, 2008).
